Source: patent US20040005256A1, “Crystallization system utilizing atomization” (priority 2002, published 2004)

Experiment: maximum concentration of D,L-Threonine dissolved in water
Assay type: physicochemical
Conditions: solid dissolved in water (solvent) before atomization into acetone anti-solvent
Experimental: For example, the material-containing solution may be composed of a solvent, such as water, and a material to be crystallized, such as D,L-Threonine, dissolved in the water. The anti-solvent could be acetone. The solid D,L-Threonine is dissolved at its maximum concentration ratio (160 g/L) in water. The D,L-Threonine solution is atomized and introduced into the acetone. The atomized solution and the acetone are then mixed to produce the crystallized product.

With C[C@@H](O)[C@H](N)C(=O)O (racemic) [D,L-Threonine] the “maximum concentration ratio in water” value was 160 g/L.
